Reference: ChEMBL document CHEMBL1201862, “PubChem BioAssay data set” (2004)
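48-hour exposure; five concentrations; linearly interpolated endpoints. Abbreviation: GI50, concentration required for 50% inhibition of growth.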 The source made the active and inactive calls. No stated cut-off is given here; in the data, active = GI50 up to about 1.1 µM and inactive = higher.

How the values were obtained:
Test in all cases: NCI tumour cell line growth inhibition, 48 h
[1] = tested on: NCI-H460
[2] = tested on: A498
[3] = tested on: HOP-92
[4] = tested on: SN12C
[5] = tested on: NCI-H23
[6] = tested on: SK-MEL-28
[7] = tested on: 786-0
[8] = tested on: CAKI-1
[9] = tested on: UO-31
[10] = tested on: OVCAR-8
[11] = tested on: UACC-257
[12] = tested on: MOLT-4
[13] = tested on: HCT-116
[14] = tested on: SF-539
[15] = tested on: SK-OV-3
[16] = tested on: NCI-H522
[17] = tested on: Malme-3M

Measured: GI50

OC1CCC[C@@H]1Sc1ccccc1 (some centres not stated)
inactive: [1] > 100 µM | [2] > 100 µM | [3] > 100 µM | [4] > 100 µM | [5] > 100 µM | [6] > 100 µM | [7] > 100 µM | [8] > 100 µM | [9] > 100 µM | [10] > 100 µM | [11] > 100 µM | [12] > 100 µM | [13] > 100 µM | [14] > 100 µM | [15] > 100 µM

Cn1c(=O)n(C2(C)C[Se]C2)c2ccccc21
inactive: [1] > 100 µM | [2] > 100 µM | [3] > 100 µM | [4] > 100 µM | [5] > 100 µM | [6] > 100 µM | [16] > 100 µM | [7] > 100 µM | [8] > 100 µM | [9] > 100 µM | [10] > 100 µM | [11] > 100 µM | [12] > 100 µM | [13] > 100 µM | [14] > 100 µM | [15] > 100 µM

Cc1nc2ccccc2c(=O)n1/N=C(\N=N\c1ccccc1Cl)c1ccccc1Cl
inactive: [1] 73.5 µM | [2] 43 µM | [3] 13 µM | [4] 38.8 µM | [5] 34 µM | [6] > 100 µM | [16] 22.9 µM | [7] 48 µM | [8] 29.4 µM | [9] 36.1 µM | [10] > 100 µM | [12] 22.1 µM | [13] 36.4 µM | [14] 27.2 µM | [15] 22.9 µM

O=C(O)NC(c1ccccc1)C(NC(=O)c1ccccc1)c1ccccc1 (configuration not stated)
inactive: [1] > 100 µM | [2] > 100 µM | [3] > 100 µM | [4] > 100 µM | [5] > 100 µM | [6] > 100 µM | [7] > 100 µM | [8] > 100 µM | [10] > 100 µM | [17] > 100 µM | [11] > 100 µM | [13] > 100 µM | [14] > 100 µM

COc1cc(/C=C2/C(=O)N(C(=O)c3ccc(Cl)cc3)N=C2C)cc(OC)c1OC
inactive: [1] > 100 µM | [2] > 100 µM | [3] > 100 µM | [4] > 100 µM | [5] > 100 µM | [6] > 100 µM | [16] > 100 µM | [7] > 100 µM | [8] > 100 µM | [9] > 100 µM | [10] > 100 µM | [17] > 100 µM | [11] > 100 µM | [12] > 100 µM | [13] > 100 µM | [14] > 100 µM | [15] > 100 µM

O=C(NO)C(=O)Nc1ccc(Cl)cc1[N+](=O)[O-]
inactive: [1] > 100 µM | [2] > 100 µM | [3] 83.9 µM | [4] > 100 µM | [5] > 100 µM | [6] > 100 µM | [16] > 100 µM | [7] > 100 µM | [8] 66.5 µM | [9] > 100 µM | [10] > 100 µM | [17] > 100 µM | [11] > 100 µM | [12] > 100 µM | [13] > 100 µM | [14] > 100 µM | [15] > 100 µM

CCOC(=O)C(C(=O)OCC)P(=S)(S)c1ccccc1 (configuration not stated)
inactive: [1] > 100 µM | [2] > 100 µM | [3] > 100 µM | [4] > 100 µM | [5] > 100 µM | [6] > 100 µM | [16] > 100 µM | [7] > 100 µM | [8] > 100 µM | [9] > 100 µM | [10] > 100 µM | [17] > 100 µM | [11] > 100 µM | [12] > 100 µM | [14] > 100 µM | [15] > 100 µM

COc1ccc(/C(Cl)=C(\C=O)c2ccccc2)cc1OC
inactive: [1] 28.8 µM | [4] 11 µM | [5] 15.2 µM | [16] 7.1 µM | [8] 24.4 µM | [9] 13.5 µM | [10] 12.7 µM | [17] 61 µM | [11] 15.2 µM | [12] 6.85 µM | [13] 23.4 µM | [14] 31.4 µM | [15] 70.3 µM

COC1=C(N)C(=O)c2nc(C)ccc2C1=O
inactive: [1] 2.08 µM | [2] 1.89 µM | [3] 9.95 µM | [4] 1.82 µM | [5] 1.47 µM | [6] 1.82 µM | [16] 1.74 µM | [7] 1.98 µM | [8] 8.3 µM | [9] 2.17 µM | [10] 3.93 µM | [17] 1.77 µM | [11] 1.47 µM | [12] 5.85 µM | [13] 1.94 µM | [14] 1.91 µM | [15] 8.04 µM

N#C/C(=C/c1ccc[nH]1)P(=O)(O)O
inactive: [1] > 100 µM | [3] > 100 µM | [4] > 100 µM | [5] > 100 µM | [6] > 100 µM | [16] > 100 µM | [7] > 100 µM | [8] > 100 µM | [9] > 100 µM | [10] > 100 µM | [17] > 100 µM | [11] > 100 µM | [12] > 100 µM | [13] > 100 µM | [14] > 100 µM | [15] > 100 µM

CC(C)(O)[C@H](CCO)O[Si](c1ccccc1)(c1ccccc1)C(C)(C)C
inactive: [1] 11.2 µM | [2] 16.5 µM | [3] 10.8 µM | [4] 4.11 µM | [5] > 10 µM | [6] 15.2 µM | [16] 6.67 µM | [9] 11 µM | [10] 10.9 µM | [17] 17.1 µM | [11] 15.5 µM | [12] 4.25 µM | [13] 4.9 µM | [14] 14.3 µM | [15] 12.1 µM

COc1cc(/C=C(\C)c2ccc3c(c2)OCO3)cc(OC)c1OC
inactive: [1] 34.2 µM | [2] 17.6 µM | [4] 26.2 µM | [5] 37.5 µM | [6] 41.1 µM | [16] 20.2 µM | [7] 21.3 µM | [9] 27.3 µM | [10] 29.8 µM | [17] 19.8 µM | [11] 29.2 µM | [12] 16.7 µM | [13] 31.8 µM | [14] 14.1 µM | [15] 28 µM

O=c1c2ccccc2nc(-c2ccccc2Cl)n1NCC1(O)OCC(O)C(O)C1O (configuration not stated)
inactive: [1] > 100 µM | [2] > 100 µM | [4] > 100 µM | [5] > 100 µM | [6] > 100 µM | [16] > 100 µM | [7] > 100 µM | [8] > 100 µM | [9] > 100 µM | [10] > 100 µM | [17] > 100 µM | [11] > 100 µM | [12] > 100 µM | [13] > 100 µM | [14] > 100 µM | [15] > 100 µM

Cc1cc2oc(-c3ccccc3)c(C)c(=O)c2c2c1OC(C)(C)S2
inactive: [1] 92.7 µM | [3] 27.2 µM | [4] > 100 µM | [5] > 100 µM | [6] 60.7 µM | [16] 72.3 µM | [7] > 100 µM | [9] > 100 µM | [10] > 100 µM | [17] > 100 µM | [11] 63.7 µM | [12] 60.3 µM | [13] 71 µM | [14] > 100 µM | [15] > 100 µM

CCCCC(C)/C=C/C(O)=C1\C(=O)O/C(=C\C(=O)O)C1=O (configuration not stated)
inactive: [1] > 100 µM | [2] > 100 µM | [4] > 100 µM | [5] > 100 µM | [6] > 100 µM | [7] > 100 µM | [9] > 100 µM | [10] > 100 µM | [17] > 100 µM | [11] > 100 µM | [12] > 100 µM | [13] > 100 µM | [14] > 100 µM | [15] > 100 µM

CC(C)(C)Sc1nnc(SC(C)(C)C)c2c(SC(C)(C)C)nnc(O)c12
inactive: [1] 6.25 µM | [2] 14 µM | [3] 2.49 µM | [4] 10.2 µM | [5] 10.9 µM | [16] 3.61 µM | [7] 10.1 µM | [8] 3.58 µM | [9] 5.73 µM | [10] 10 µM | [17] 13.1 µM | [11] 13.6 µM | [12] 3.37 µM | [13] 3.78 µM | [14] 10.6 µM | [15] 17.9 µM

CC1=NNC(=O)C2CCC(=O)N12 (configuration not stated)
inactive: [1] > 100 µM | [2] > 100 µM | [4] > 100 µM | [6] > 100 µM | [16] > 100 µM | [7] > 100 µM | [8] > 100 µM | [9] > 100 µM | [10] > 100 µM | [17] > 100 µM | [11] > 100 µM | [12] > 100 µM | [13] > 100 µM | [14] > 100 µM | [15] > 100 µM

COc1ccc(Nc2nc(C#N)c(N)s2)cc1
inactive: [1] > 100 µM | [3] > 100 µM | [4] 30.7 µM | [5] 22.5 µM | [6] > 100 µM | [16] 22.8 µM | [7] 64 µM | [8] 24.6 µM | [9] 40.8 µM | [10] 78.5 µM | [17] 91.2 µM | [11] 17.1 µM | [12] > 10 µM | [13] 33 µM | [14] 36.2 µM | [15] 34 µM
